14 molecules from ChEMBL document CHEMBL4373717, “Coumarin-containing hybrids and their anticancer activities” (Eur J Med Chem, 2019) can be followed below.

Broadly, the IC50 is the point on the concentration scale where inhibition reaches its midpoint.

≈ marks a conversion by molar mass, not a printed value.

In one data set the test system is HCT-116. The experiment in a line: Cytotoxicity against human HCT116 cells assessed as reduction in cell viability after 96 hrs by MTT assay. The class given is functional, cell-based. The settings on record: HCT-116, 96 h. Background: Tetrazolium assays rely on reduction of a dye to a coloured formazan, in cell work by metabolically active cells.
The test system of a further data set is MDA-MB-231. The experiment in a line: Cytotoxicity against human MDA-MB-231 cells assessed as reduction in cell viability after 96 hrs by MTT assay. The format is functional, cell-based. The settings on record: MDA-MB-231, 96 h.
Another data set deals with HT-29. The data set can be described thus: Cytotoxicity against human HT-29 cells assessed as reduction in cell viability after 96 hrs by MTT assay. The format is functional, cell-based. As to conditions: HT-29, 96 h.
Data set [1] has as its target Vascular endothelial growth factor receptor 2 (Homo sapiens, UniProt P35968). The experiment in a line: Inhibition of VEGFR2 (unknown origin).
Another data set concerns DLD-1. The experiment in a line: Cytotoxicity against human DLD1 cells assessed as reduction in cell viability. The class given is functional, cell-based.
For data set [2], the system named is MCF7. The data set can be described thus: Cytotoxicity against human MCF7 cells assessed as reduction in cell viability. The class given is functional, cell-based.
Data set [3] concerns HepG2. The data set can be described thus: Anticancer activity against human HepG2 cells by CCK8 assay. The format is functional, cell-based.
Another data set deals with Hep 3B2. The data set can be described thus: Anticancer activity against human Hep3B cells by CCK8 assay. The class given is functional, cell-based.
Another data set has as its system A2780. The data set can be described thus: Anticancer activity against human A2780 cells by CCK8 assay. The class given is functional, cell-based.
In the next data set the test system is OVCAR-3. The experiment in a line: Anticancer activity against human OVCAR3 cells by CCK8 assay. The format is functional, cell-based.
In another data set the test system is SK-MEL-28. The experiment in a line: Cytotoxicity against human SK-MEL-28 cells assessed as reduction in cell viability after 24 hrs by MTT assay. The class given is functional, cell-based. As to conditions: SK-MEL-28, 24 h.
Another data set has as its system BT-20. The data set can be described thus: Cytotoxicity against human BT20 cells assessed as reduction in cell viability after 24 hrs by MTT assay. The format is functional, cell-based. As to conditions: BT-20, 24 h.
In the next data set the test system is DU-145. The experiment in a line: Cytotoxicity against human DU145 cells assessed as reduction in cell viability after 24 hrs by MTT assay. The class given is functional, cell-based. The settings on record: DU-145, 24 h.
Data set [4] has as its system A549. The data set can be described thus: Cytotoxicity against human A549 cells assessed as reduction in cell viability after 24 hrs by MTT assay. The class given is functional, cell-based. As to conditions: A549, 24 h.
The test system of the next data set is HeLa. The experiment in a line: Cytotoxicity against human HeLa cells assessed as reduction in cell viability after 72 hrs by MTT assay. The format is functional, cell-based.
The test system of another data set is Caco-2. The data set can be described thus: Cytotoxicity against human Caco2 cells assessed as reduction in cell viability after 72 hrs by MTT assay. The class given is functional, cell-based. The settings on record: Caco-2, 72 h.
A further data set concerns K562. The experiment in a line: Cytotoxicity against human K562 cells assessed as reduction in cell viability after 72 hrs by MTT assay. The format is functional, cell-based. The settings on record: K562, 72 h.
For data set [5], the system named is A549. The experiment in a line: Cytotoxicity against human A549 cells assessed as reduction in cell viability by MTT assay. The format is functional, cell-based.
The subject of data set [6] is MCF7. The data set can be described thus: Cytotoxicity against human MCF7 cells assessed as reduction in cell viability by MTT assay. The format is functional, cell-based.
A short description of data set [7]: Toxicity in mouse assessed as mouse survival (reference value: 14.5 days). As to conditions: in vivo, 348 h.
The subject of data set [8] is HepG2. The data set can be described thus: Cytotoxicity against human HepG2 cells assessed as reduction in cell viability by MTT assay. The format is functional, cell-based.

Chain of Vascular endothelial growth factor receptor 2 (P35968 whole entry): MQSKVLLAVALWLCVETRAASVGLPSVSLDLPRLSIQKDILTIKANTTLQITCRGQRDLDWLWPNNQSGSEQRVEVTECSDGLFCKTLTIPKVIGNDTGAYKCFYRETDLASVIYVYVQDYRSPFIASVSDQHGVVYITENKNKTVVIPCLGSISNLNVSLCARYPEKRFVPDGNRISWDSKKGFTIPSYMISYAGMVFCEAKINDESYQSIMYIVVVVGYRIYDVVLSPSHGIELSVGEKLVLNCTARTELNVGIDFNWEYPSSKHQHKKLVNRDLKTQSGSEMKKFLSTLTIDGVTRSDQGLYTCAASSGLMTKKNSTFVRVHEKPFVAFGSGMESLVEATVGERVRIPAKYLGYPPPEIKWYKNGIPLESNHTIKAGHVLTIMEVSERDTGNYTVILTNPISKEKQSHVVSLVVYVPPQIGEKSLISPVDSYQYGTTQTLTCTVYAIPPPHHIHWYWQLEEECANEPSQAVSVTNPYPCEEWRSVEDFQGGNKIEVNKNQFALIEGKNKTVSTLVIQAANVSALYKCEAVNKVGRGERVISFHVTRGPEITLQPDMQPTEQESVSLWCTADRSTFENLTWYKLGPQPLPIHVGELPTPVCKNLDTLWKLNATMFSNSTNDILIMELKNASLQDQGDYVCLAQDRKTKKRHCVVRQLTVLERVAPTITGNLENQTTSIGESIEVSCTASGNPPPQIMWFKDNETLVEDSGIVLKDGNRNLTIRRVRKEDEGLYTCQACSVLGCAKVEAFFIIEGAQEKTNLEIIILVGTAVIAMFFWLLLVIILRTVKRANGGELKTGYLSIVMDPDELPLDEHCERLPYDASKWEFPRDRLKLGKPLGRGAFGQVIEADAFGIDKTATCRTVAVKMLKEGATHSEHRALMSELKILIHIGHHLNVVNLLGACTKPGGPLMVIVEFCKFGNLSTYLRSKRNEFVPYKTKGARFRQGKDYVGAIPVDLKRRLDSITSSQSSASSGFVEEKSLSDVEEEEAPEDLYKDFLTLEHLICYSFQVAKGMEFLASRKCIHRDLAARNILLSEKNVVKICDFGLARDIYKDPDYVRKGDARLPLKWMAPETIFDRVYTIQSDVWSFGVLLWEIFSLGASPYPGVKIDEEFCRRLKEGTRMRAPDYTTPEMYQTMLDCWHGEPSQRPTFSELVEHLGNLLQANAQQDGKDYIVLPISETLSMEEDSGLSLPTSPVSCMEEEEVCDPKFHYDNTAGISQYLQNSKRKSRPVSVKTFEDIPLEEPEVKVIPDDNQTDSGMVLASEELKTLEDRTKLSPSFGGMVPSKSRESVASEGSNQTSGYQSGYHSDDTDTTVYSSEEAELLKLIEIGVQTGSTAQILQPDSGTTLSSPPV

Take `Cc1cc(C)c2c(Cn3cc(CO[C@H]4O[C@@H]5O[C@@]6(C)CC[C@H]7[C@H](C)CC[C@@H]([C@H]4C)[C@@]57OO6)nn3)cc(=O)oc2c1`: the IC50 with HCT-116, in the data set with MDA-MB-231 and in the data set on HT-29 was 8.57 to 100 µM in each case.

As to `CN(C)c1ccc(C2CC(c3cc4ccccc4oc3=O)=NN2c2nc(-c3ccccc3)c(/N=N/c3ccc(Cl)cc3)s2)cc1` (configuration not stated), the IC50 in [1] lay in the range of 0.034 to 0.582 µM; with DLD-1, 114 to 129 µM; in the data set on MCF7 [2], 5.41 to 6.56 µM.

In the case of `C[C@H]1[C@@H](OCc2cn(Cc3cc(=O)oc4cc(O)ccc34)nn2)O[C@@H]2O[C@@]3(C)CC[C@H]4[C@H](C)CC[C@@H]1[C@@]24OO3`, the IC50 in the data set on HCT-116, with MDA-MB-231 and in the data set on HT-29 was 8.57 to 100 µM each time.

With `Cc1ccc2oc(=O)cc(Cn3cc(CO[C@H]4O[C@@H]5O[C@@]6(C)CC[C@H]7[C@H](C)CC[C@@H]([C@H]4C)[C@@]57OO6)nn3)c2c1`, the IC50 in the data set with HCT-116, with MDA-MB-231 and in the data set with HT-29 was 8.57 to 100 µM throughout.

Take `CCN(CC)c1ccc2cc(C(=O)N3CCN(C(=O)CN4CCN(CCC[C@H]5O[C@@H]6O[C@@]7(C)CC[C@H]8[C@H](C)CC[C@@H]([C@H]5C)[C@@]68OO7)CC4)CC3)c(=O)oc2c1`: the IC50 with HepG2 [3], in the data set on Hep 3B2, with A2780 and in the data set with OVCAR-3 was 2.33 to 23.7 µM each time.

Regarding `CN(C)c1ccc(C2CC(c3c(O)c4ccccc4oc3=O)=NN2c2nc(-c3ccccc3)c(/N=N/c3ccc(Cl)cc3)s2)cc1` (configuration not stated), the IC50 in data set [1] was 5.41 µM; in the data set on DLD-1, 114 to 129 µM; with MCF7 [2], 5.41 to 6.56 µM.

For the molecule `O=C(Cn1nc(Cc2ccc(Br)cc2)[nH]c1=O)NNC(=O)c1cc2cc(Cl)cc(Cl)c2oc1=O`, the IC50 with SK-MEL-28, in the data set on BT-20, in the data set with DU-145 and in the data set with A549 [4] was 3.1 to 37.9 µg/mL (≈ 5.47 to 66.8 µM) in each case.

With `CCN(CC)c1ccc2cc(C(=O)NCCNC(=O)CN3CCN(CCC[C@H]4O[C@@H]5O[C@@]6(C)CC[C@H]7[C@H](C)CC[C@@H]([C@H]4C)[C@@]57OO6)CC3)c(=O)oc2c1`, the IC50 in the data set with HepG2 [3], with Hep 3B2, in the data set on A2780 and with OVCAR-3 was 2.33 to 23.7 µM throughout.

For the molecule `CCN(CC)c1ccc2cc(C(=O)NNC(=O)Cn3nc(Cc4cccc(Br)c4)[nH]c3=O)c(=O)oc2c1`, the IC50 in the data set with SK-MEL-28, in the data set with BT-20, in the data set on DU-145 and in the data set with A549 [4] was 3.1 to 37.9 µg/mL (≈ 5.44 to 66.6 µM) in each case.

For the molecule `COc1ccccc1-c1cn(Cc2cc(=O)oc3cc(O)c(O)cc23)nn1`, the IC50 with HeLa, in the data set on Caco-2 and with K562 was 9.7 to 81.9 µM each time.

Consider `CCN(CC)c1ccc2cc(C(=O)NNC(=O)Cn3nc(Cc4ccc(Cl)c(Cl)c4)[nH]c3=O)c(=O)oc2c1`, for which the IC50 in the data set on SK-MEL-28, in the data set on BT-20, in the data set on DU-145 and in the data set on A549 [4] was 3.1 to 37.9 µg/mL (≈ 5.54 to 67.7 µM) each time.

With `Cc1cc(=O)oc2cc(NC(=O)CNCc3cccnc3)ccc12`, the IC50 in the data set on A549 [5] fell in the range of 69.1 to 378 µM; in the data set on MCF7 [6] (Homo sapiens, MCF7) it was 69.1 to 378 µM.

In the case of `O=c1ccc2ccccc2o1` [COUMARIN], the IC50 in the data set on HepG2 [3], with Hep 3B2, in the data set with A2780 and in the data set with OVCAR-3 was more than 100 µM throughout.

Turning to `O=c1[nH]cc(F)c(=O)[nH]1` [FLUOROURACIL], the Survival in data set [7] turned out to be 49 days. For the same molecule, the “growth inhibition (GI)” value in the data set with HepG2 [8] and in the data set with MCF7 [6] was 11.55 - 95.52% each time.
